# Measurements: patent publication US10265294B2, “Compositions and methods for treating epithelial cancer” (YALE UNIVERSITY, priority 2016, dated 2019)
# Legend:
# [1] = test system: OCSCs (CD44+/MyD88+ ovarian cancer stem cells); test: OCSC growth, morphology, RFP+ cell count and Celltox cell death (kinetic live cell imaging); type: cell-based, human
# Description: (§1) CD44+/MyD88+ ovarian cancer stem cell clones (OCSC1 and OCSC2) and CD44−/MyD88− ovarian cancer cells (OCC1 and OCC2) were isolated from either tumor tissue or ascites obtained from patients diagnosed with stage III/IV serous ovarian cancer and propagated (Alvero, et al., 2009, Cell Cycle 8:158-166; Chefetz, et al., 2013, Cell Cycle 12:511-521). The epithelial nature of the isolated cells was determined by immunostaining for Ck18. Purity of the cultures based on CD44 expression by flow cytometry and chemoresistance were routinely tested. Stable expression of nuclear-restricted red fluorescent (in OCSCs) or green fluorescent proteins (in OCCs) was performed by transduction using NUCLIGHT® Red or Green Lentivirus Reagent (Essen Bioscience, Ann Arbor, Mich.). Spheroids were formed from OCSCs by culturing in ultra-low attachment multi-well plates (Corning, Inc., Corning, N.Y.).
# (§2) Effect of each compound on cell morphology, growth, and viability was assessed using a kinetic live cell imaging system (Incucyte, Essen Bioscience). Proliferation was calculated as previously described (Alvero, et al., 2011, Mol. Cancer Ther. 10:1385-1393) using metrics from either confluence or fluorescent count from nuclear-restricted RFP or GFP. Cell death was quantified; similarly CELLTOX® Green Cytotoxicity Assay (Promega, Madison, Wis.). IC50 was calculated as described using GraphPad Prism (GraphPad Software Inc., LaJolla, Calif.).
# In vitro, conventional chemotherapeutic drugs had negligible effect on OCSC growth even in the μM range (FIG. 1B).
# TRX-E-002 exists as a racemic mixture comprised of two enantiomers, enantiomer A (TRX-E-002-1) and enantiomer B (TRX-E-002-2). Thus, the enantiomers were separated and assessed separately. To distinguish between an analog's cytostatic or cytotoxic activity, OCSC clones that are stably transfected with nuclear-restricted RFP were used, which allows an accurate quantification of the number of cells and can be multiplexed with CELLTOX® assay to concomitantly measure the number of dead cells.
# [2] = test system: OCSC2 (chemoresistant CD44+/MyD88+ ovarian cancer stem cell clone); test: Real-time measurement of cell number/cell death and IC50, OCSC2 clone; type: cell-based, human
# Description: as §1, §2
# (§3) A panel of four different SBP subfamilies with cytotoxic activity against chemoresistant ovarian cancer stem cells were tested for efficacy in inducing ovarian cancer stem cell death. […] The efficacy of each analog was determined based on its IC50.
# TRX-E-002 exists as a racemic mixture comprised of two enantiomers, enantiomer A (TRX-E-002-1) and enantiomer B (TRX-E-002-2). Thus, the enantiomers were separated and assessed separately. […]
# [3] = test system: OCSC1 (chemoresistant CD44+/MyD88+ ovarian cancer stem cell clone); test: Real-time measurement of cell number/cell death and IC50, OCSC1 clone; type: cell-based; settings: Homo sapiens; screen of 40 SBP analogs, OCSC1 clone (FIG. 1A)
# Description: CD44+/MyD88+ ovarian cancer stem cell clones (OCSC1 and OCSC2) and CD44−/MyD88− ovarian cancer cells (OCC1 and OCC2) were isolated from either tumor tissue or ascites obtained from patients diagnosed with stage III/IV serous ovarian cancer and propagated (Alvero, et al., 2009, Cell Cycle 8:158-166; Chefetz, et al., 2013, Cell Cycle 12:511-521). The epithelial nature of the isolated cells was determined by immunostaining for Ck18. Purity of the cultures based on CD44 expression by flow cytometry and chemoresistance were routinely tested. […]
# as §2, §3
# [4] = test system: chemoresistant ovarian cancer stem cells; test: OCSC growth and morphology with TRX-E-002-1, AICAR or the combination; type: cell-based, human
# Description: The effect of each compound on cell growth was assessed using a kinetic live cell imagine system (Incucyte, Essen Bioscience). Proliferation was determined based on either confluence or fluorescent count from nuclear-restricted RFP or GFP. The IC50 values were calculated using GraphPad Prism (GraphPad Software Inc., LaJolla, Calif.). […]
# [5] = test system: co-culture of RFP-labeled OCSC2 and GFP-labeled OCC2; test: In vitro co-culture model 50% RFP-OCSC2 / 50% GFP-OCC2; type: cell-based; settings: co-culture 50/50; TRX-E-002-1 0.12 μM, Cisplatin 20 μM
# Description: as §1, §2
# Without wishing to be limited by any theory, response to chemotherapy may be modified by cross-talk among different cancer cell types within the tumor. Thus, to mimic the heterogeneity of ovarian tumors an in vitro co-culture model consisting of RFP-labeled chemoresistant OCSC2 and GFP-labeled chemosensitive OCC2 was used. The co-cultures, which are comprised of 50% RFP-OCSC2 and 50% GFP-OCC2 at time of treatment, were exposed to TRX-E-002-1, cisplatin, or the combination of both. Since GFP-OCC2 has faster doubling time than RFP-OCSC2, it overtook the control co-cultures by the end of the experiment and thus the control co-cultures are mainly comprised of GFP-OCC2 by the 24 h time-point (FIG. 2B).
# [6] = test system: i.p. tumors of mCherry+OCSC1-F2 ovarian cancer cells; test: Recurrent disease xenograft, maintenance treatment after Paclitaxel; type: in vivo
# Excerpt: The Yale University Institutional Animal Care and Use Committee approved all in vivo studies described. Intra-peritoneal tumors were established in athymic nude mice using 4×10^6 mCherry+OCSC1-F2 ovarian cancer cells (Craveiro, et al., 2013, Cancer Med. 2:751-762). Injection of cancer cells is designated as day 0 and treatment commenced between day 3-5. Establishment of i.p. tumors was confirmed by live imaging (In-Vivo FX PRO, Bruker Corp., Billerica, Mass.) prior to treatment. TRX-E-002-1 was prepared in 20% Captisol or Dexsolve and administered daily at 50 mg/kg or 100 mg/kg. Paclitaxel was given at 12 mg/kg q3d and Cisplatin at 5 mg/kg weekly. All treatments were given i.p. Tumor growth was monitored q3d by live imaging and response to treatment was assessed using ROI area.
# Although the standard of care for ovarian cancer patients (platinum plus taxane) is effective initially, most patients develop recurrent disease. Recurrence is the major cause of mortality in ovarian cancer patients, and thus approaches that can prevent recurrence are critical to improve patient survival. As described elsewhere herein, a unique advantage of the xenograft model is the recapitulation of recurrent disease that is typically observed in patients with ovarian cancer. […] Upon recurrence, tumors acquire resistance and become unresponsive to a second-round of Paclitaxel regimen, as observed in ovarian cancer patients. Thus, the model allows one to assess the value of novel compounds in preventing recurrence when given as maintenance treatment.
# Thus mice were given Paclitaxel as initial treatment. […] After the 4th dose of Paclitaxel mice were re-randomized into the different maintenance groups. Here the maintenance protocol consisted of continued treatment with Paclitaxel, or maintenance with TRX-E-002-1 (100 mg/kg), or maintenance with Vehicle control.
# [7] = test system: OCSCs; test: Cell death of OCSCs with JNK or ERK pathway inhibitor; type: cell-based, human; settings: U0126 10 μM, 24 hour time-point
# Description: as §2
# Jun N-terminal kinase (JNK) is a stress-activated protein kinase and the main kinase that phosphorylates c-Jun. To determine whether the JNK/Jun pathway is involved in TRX-E-002-1-induced cell death, the JNK inhibitor SP600125 (1,9-Pyrazoloanthrone; a reversible ATP competitive inhibitor selective for JNK 1, 2, and 3) was used. Cells were treated with TRX-E-002-1 in the presence or absence of SP600125.
# To determine the importance of downregulating the levels of p-ERK, cells were treated with U0126 (1,4-diamino-2,3-dicyano-1,4-bis(2-aminophenylthio)butadiene) to recapitulate the effect of TRX-E-002-1 on the ERK pathway.
# [8] = test system: ERK; test: Phosphokinase array / Western blot for phosphorylated ERK in OCSCs; type: cell-based, human; settings: U0126 10 μM, 2 hours; comparable to levels induced by TRX-E-002-1
# Description: SDS-PAGE and Western blots were performed using 20 μg of total protein lysate as described in Kamsteeg, et al., 2003, Oncogene 22:2611-2620. Antibodies used were: mouse anti-phospho ERK (Santa Cruz Biotechnology, Inc., Dallas, Tex.); rabbit anti-phospho c-Jun, rabbit anti c-Jun, rabbit anti-ERK, rabbit anti-cleaved caspase 3 all from Cell Signaling Technology, Danvers, Mass.; and mouse anti-GAPDH (Sigma-Aldrich).
# In order to elucidate the early pathways responsible for the sustained cytotoxic effect observed with TRX-E-002-1, a phosphokinase array was performed. The phosphokinase array detected relative phosphorylation levels of 43 different kinases involved in major signal transduction pathways.
# The western blot results also validated the decrease in p-ERK in cells treated with TRX-E-002-1. […] The effect on the phosphorylation status of the kinases (upregulation of p-cJun and downregulation of p-ERK) was observed as early as 2 h post-treatment and maintained up to 24 h (FIG. 4A). The phosphorylation levels of c-Jun and ERK correlate with the differential ability of the two doses of TRX-E-002-1 to induce a sustained cytotoxic effect. […] This correlates with the ability of this dose of TRX-E-002-1 to maintain the upregulation of p-cJun and downregulation of p-ERK even when the compound is removed (FIG. 4B). […]
structure (smiles),measurement,setting,value
"COc1cc(C2COc3c(ccc(O)c3C)C2c2ccc(O)cc2)cc(OC)c1O (racemic) [TRX-E-002, 3-(4-hydroxy-3,5-dimethoxyphenyl)-4-(4-hydroxyphenyl)-8-methylchroman-7-ol]",apoptotic cells by microscopic evaluation of the cultures,"[1]; 24 hours, compared with Cisplatin or Paclitaxel treated cultures",higher percentage of apoptotic cells
same,effect on OCSC growth,"[1]; chemotherapeutic drugs even in the μM range, TRX-E-002 at low concentrations",persistent growth inhibitory effect
same,IC50,"[2]; Homo sapiens, screen of 40 SBP analogs, OCSC2 clone (FIG. 1A)",< 0.245 µM
same,IC50,[3],< 0.245 µM
"COc1cc(C2COc3c(ccc(O)c3C)C2c2ccc(O)cc2)cc(OC)c1O (single isomer, unassigned) [TRX-E-002-2]",number of nuclear RFP+ cells,"[1]; RFP OCSC clones, TRX-E-002-1 beginning at the 0.245 μM dose, TRX-E-002-2 except for the very high dose of 10 μM",mostly ineffective
same,IC50,"[2]; OCSC2, 24 hours (FIG. 1G)",10 µM
"NC(=O)c1ncn([C@@H]2O[C@H](CO)[C@@H](O)[C@H]2O)c1N [AICAR, 5-aminoimidazole-4-carboxamide-1-β-D-ribofuranoside, reference compound]",cell morphology / apoptotic cells,"[4]; 48 hours, AICAR at 0.2 mM",no effect
same,effect on cell growth,"[4]; TRX-E-002-1 25 ng/ml, mono therapies or combination",minimal effect
"N.N.[Cl][Pt][Cl] [Cisplatin, reference compound]",number of GFP+ cells (GFP-OCC2),[5],decrease
same,number of mCherry+ cells (RFP-OCSC2),[5],no effect
"CC(=O)O[C@H]1C(=O)[C@@]2(C)[C@H]([C@H](OC(=O)c3ccccc3)[C@]3(O)C[C@H](OC(=O)[C@H](O)[C@@H](NC(=O)c4ccccc4)c4ccccc4)C(C)=C1C3(C)C)[C@]1(OC(C)=O)CO[C@@H]1C[C@@H]2O [Paclitaxel, reference compound]",tumor progression during initial treatment,[6]; Paclitaxel 4 doses at 12 mg/kg i.p.,significant delay in tumor progression
same,tumor progression during maintenance treatment,"[6]; after 4th dose of Paclitaxel, TRX-E-002-1 100 mg/kg daily i.p. or continued Paclitaxel",tumor progression was observed
same,gross examination of residual disease,[6]; maintenance groups,visible carcinomatosis and extensive metastasis
same,tumor weights at end point compared to control,[6]; maintenance groups,not
"N#CC(=C(N)Sc1ccccc1N)C(C#N)=C(N)Sc1ccccc1N [U0126, 1,4-diamino-2,3-dicyano-1,4-bis(2-aminophenylthio)butadiene, reference compound]",effect on cell death relative to TRX-E-002-1,[7],not comparable
same,levels of p-ERK,[8],downregulated
